Results published in ChEMBL document CHEMBL1201862, “PubChem BioAssay data set” (2004).
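Where inhibition never reached the appropriate level, the endpoint shown equals the highest concentration tested. Otherwise, values were interpolated linearly from a five-concentration, 48-hour dose response in 96-well plates. GI50 marks 50% less growth.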 Active and inactive are the calls of the source. No stated cut-off is given here; in the data, active = GI50 up to about 1.1 µM and inactive = higher.

How the values were obtained:
Test in all cases: NCI-60 cell line screen, 48 h
[1] = system: ACHN
[2] = system: CCRF-CEM
[3] = system: COLO 205
[4] = system: HCT-116
[5] = system: HL-60
[6] = system: HOP-62
[7] = system: HT-29
[8] = system: NCI-H226
[9] = system: NCI-H522
[10] = system: OVCAR-3
[11] = system: RXF 393
[12] = system: SF-268
[13] = system: SW-620
[14] = system: U-251
[15] = system: UACC-257
[16] = system: UACC-62
[17] = system: UO-31
[18] = system: MDA-N
[19] = system: T47D
[20] = system: Hs-578T

Measured: GI50

CC1=CC(=O)CC2(C)CC[C@@H]3C[C@]12OC3(C)C (stereo partly drawn)
inactive: [1] > 100 µM | [2] > 100 µM | [3] > 100 µM | [4] > 100 µM | [5] > 100 µM | [6] > 100 µM | [7] > 100 µM | [8] > 100 µM | [9] > 100 µM | [10] > 100 µM | [11] > 100 µM | [12] > 100 µM | [13] > 100 µM | [14] > 100 µM | [15] > 100 µM | [16] > 100 µM | [17] > 100 µM

CCOP(=O)(OCC)[C@H](O)c1ccsc1
inactive: [1] > 100 µM | [2] > 100 µM | [3] > 100 µM | [4] > 100 µM | [6] > 100 µM | [7] > 100 µM | [18] > 100 µM | [8] > 100 µM | [9] > 100 µM | [11] > 100 µM | [12] > 100 µM | [13] > 100 µM | [19] > 100 µM | [14] > 100 µM | [15] > 100 µM | [16] > 100 µM | [17] > 100 µM

CCOC(=O)C(=O)N/N=C1\C(=O)Nc2ccccc21
inactive: [1] > 100 µM | [2] > 100 µM | [3] > 100 µM | [4] > 100 µM | [6] > 100 µM | [18] > 100 µM | [8] > 100 µM | [9] > 100 µM | [11] > 100 µM | [12] > 100 µM | [13] > 100 µM | [19] > 100 µM | [14] > 100 µM | [15] > 100 µM | [16] > 100 µM | [17] > 100 µM

N#Cc1ccc(Oc2nc3ccccc3nc2-c2ccccc2)cc1
inactive: [1] > 100 µM | [2] > 100 µM | [3] > 100 µM | [4] > 100 µM | [5] > 100 µM | [6] > 100 µM | [7] > 100 µM | [20] > 100 µM | [18] > 100 µM | [8] > 100 µM | [9] > 100 µM | [10] > 100 µM | [11] > 100 µM | [12] > 100 µM | [13] > 100 µM | [14] > 100 µM | [15] > 100 µM | [16] > 100 µM | [17] > 100 µM

O=C1C(Cl)C(c2cc(Br)cc(Br)c2O)N1n1cnc2ccccc2c1=O (stereo not drawn)
inactive: [1] 28.2 µM | [2] 9.29 µM | [3] 29.2 µM | [4] 18.9 µM | [5] 16.8 µM | [6] 24.3 µM | [7] 36.1 µM | [8] 21.9 µM | [9] 19 µM | [10] 22.3 µM | [11] 21 µM | [12] 10.7 µM | [13] 35.8 µM | [14] 6.35 µM | [15] 18.7 µM | [16] 19.2 µM | [17] 20.7 µM

CCCOP(=S)(N1CC1)N1CC1
inactive: [1] > 100 µM | [2] > 100 µM | [3] > 100 µM | [4] > 100 µM | [5] > 100 µM | [6] > 100 µM | [7] > 100 µM | [8] 75.9 µM | [9] > 100 µM | [10] > 100 µM | [11] > 100 µM | [12] > 100 µM | [13] > 100 µM | [14] > 100 µM | [15] 24.8 µM | [16] > 100 µM | [17] > 100 µM

N#Cc1nsnc1-c1nc(-c2nsnc2C#N)nc(-c2nsnc2C#N)n1
inactive: [1] > 100 µM | [3] > 100 µM | [4] > 100 µM | [5] 76.6 µM | [6] > 100 µM | [7] > 100 µM | [20] 37.7 µM | [18] > 100 µM | [8] > 100 µM | [9] > 100 µM | [10] > 100 µM | [11] 63.8 µM | [12] > 100 µM | [13] > 100 µM | [14] > 100 µM | [15] > 100 µM | [16] > 100 µM | [17] > 100 µM

CN(C)/C=C/C(=O)c1cccc(C(=O)/C=C/N(C)C)n1
inactive: [1] > 100 µM | [2] > 100 µM | [3] > 100 µM | [4] > 100 µM | [5] > 100 µM | [6] > 100 µM | [7] > 100 µM | [8] > 100 µM | [9] > 100 µM | [10] > 100 µM | [11] > 100 µM | [12] > 100 µM | [13] > 100 µM | [14] > 100 µM | [15] > 100 µM | [16] > 100 µM | [17] > 100 µM
